Columns and labels:
Aβ40 = assay: Lowering of Aβ40 in brain of wild-type mice; type: in vivo; details: Mus musculus, po; female C57Bl/6J mice, 30 mg/kg per os, 4 h; brain Aβ40 as percentage of the vehicle group; read-out: Aβ40 (wt mice, brain)
Description: Lowering of Aβ40 in Brain of Wild-Type Mice:
Animals and Housing Conditions.
Animals were maintained in a 12/12 h light/dark cycle, with lights starting at 6 a.m., and experiments were conducted during the light phase, Animal housing and experimental procedures were in line with ethical and legal guidelines and were authorized by local veterinary authorities.
Female C57Bl/6J mice were treated with a dose of 30 mg/kg of the compounds, 3-4 animals per treatment group. The test compound was dissolved in 5% EtOH, 10% Solutol, and was applied per os at 10 mL/kg. After 4 h, the animals were sacrificed and brain and plasma were collected. The brain was cut into halves and immediately frozen on dry ice. Brain was used for measurement of Aβ40 and plasma was used for determination of compound exposure. […] Brain tissue was homogenized in 2% DEA buffer in a Roche MagnaLyser (20″, 4000 rpm) and subsequently centrifuged for 1 h at 100000 g. DEA was reduced to 0.2% in 50 mM NaCl and one-half of the DEA lysate was passed over an Oasis Solid phase extraction plate (Waters; cat. no. 186000679), which had been activated with MeOH and equilibrated in dH2O (1 mL each). After washes in 10% and 30% MeOH (1 mL each), the Aβ-peptides were eluted in 0.8 mL of 2% NH4OH in 90% MeOH. The eluate was dried over a N2 flow, and the dried sample was reconstituted in 30 μL of AlphaLISA assay buffer. Aβ40 was determined by an AlphaLISA assay (Perkin-Elmer). In a white 96-well, half area microplate (Perkin-Elmer cat. no. 6005561), 20 μL of the reconstituted sample were mixed with 5 μL of biotinylated BAP-24 (specific for C-terminus of Aβ40) (Brockhaus, M.; Onmberg, J.; Rohrig, S.; Loetscher, H.; Wittenburg, N.; Baumeister, R.; Jacobsen, H.; Haass, C. Caspasemediated cleavage is not required for the activity of presenilins in amyloidogenesis and NOTCH signaling. NeuroReport 1998, 9, 1481-1486.) stock=4.4 mg/mL, f.c.5.5 μg/mL), and 5 μL 252Q6 acceptor beads (252Q6 antibody, Invitrogen AMB0062) had been previously conjugated with AlphaLISA Acceptor beads (Perkin-Elmer cat. no. 6772002); final dilution 1:500). The mix was incubated for 1 h at RT in the dark. Then 20 μL of Streptavin-coated Donor Beads (Perkin-Elmer cat. no. 6760002, final dilution 1:125) were added and this final mix was incubated in the dark for another 30 min at RT before RFU was measured in an AlphaScreen Reader (Perkin-Elmer Envision 2104). The value obtained for A40 in the treated animals was related to the value in the vehicle group and is given in %. Alternatively a commercial ELISA was used for Aβ40 determination (Wako ELISA: (“Human/Rat 3 Amyloid (40) ELISA kit Wako II”; cat nr. 294-64701) following the manufacture's instruction. Also here the Aβ-lowering efficacy was calculated as percentage of the vehicle group.

BACE1 = molecular target: T1, BACE1 (Homo sapiens, UniProt P56817); assay: Cellular Aβ-lowering assay (Abeta 40 AlphaLISA, HEK293 APP cells); type: cell-based; details: 18-20 hrs incubation, Aβ 40 in culture supernatants, read-out: BACE1 cell act. Aβ40 IC50
T1 construct: endogenous in cells; host or cells: HEK293 APP cells
Description: Cellular Aβ-Lowering Assay:
The Abeta 40 AiphaLISA Assay can be used. The HEK293 APP cells were seeded in 96 well Microtiter plates in cell culture medium (Iscove's, plus 10% (v/v) fetal bovine serum, penicillin/streptomycin) to about 80% confluency and the compounds were added at a 3× concentration in ⅓ volume of culture medium (final DMSO concentration was kept at 1% v/v). After 18-20 hrs incubation at 37° C. and 5% CO2 in a humidified incubator, the culture supernatants were harvested for the determination of Aβ 40 concentrations using Perkin-Elmer Human Amyloid beta 1-40 (high specificity) Kit (Cat # AL275C).
In a Perkin-Elmer White Optiplate-384 (Cat #6007290), 2 ul culture supernatants were combined with 2 μl of a 10× AlphaLISA Anti-hABAcceptor beads+Biotinylated Antibody Anti-AD 1-40 Mix (50 μg/mL/5 nM). After 1 hour room temperature incubation, 16 μl of a 1.25× preparation of Streptavidin (SA) Donor beads (25 μg/mL) were added and incubated for 30 minutes in the Dark. Light Emission at 615 nm was then recorded using EnVision-Alpha Reader. Levels of Aβ 40 in the culture supernatants were calculated as percentage of maximum signal (cells treated with 1% DMSO without inhibitor). The IC50 values were calculated using the Excel XLfit software.

T1 sequence (P56817 46-501): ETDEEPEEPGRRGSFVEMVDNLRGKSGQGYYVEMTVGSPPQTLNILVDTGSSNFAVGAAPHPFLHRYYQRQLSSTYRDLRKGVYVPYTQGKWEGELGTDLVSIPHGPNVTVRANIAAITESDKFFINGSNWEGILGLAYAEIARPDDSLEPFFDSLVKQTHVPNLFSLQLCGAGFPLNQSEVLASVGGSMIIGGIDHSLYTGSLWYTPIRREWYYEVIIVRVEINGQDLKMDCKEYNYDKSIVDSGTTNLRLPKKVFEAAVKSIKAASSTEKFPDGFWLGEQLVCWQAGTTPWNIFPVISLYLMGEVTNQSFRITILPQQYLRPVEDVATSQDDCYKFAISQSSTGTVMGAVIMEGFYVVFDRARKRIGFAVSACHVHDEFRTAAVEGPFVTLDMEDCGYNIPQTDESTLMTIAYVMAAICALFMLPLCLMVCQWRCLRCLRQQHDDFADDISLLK

Cc1cc(C#N)cnc1C(=O)Nc1ccc(F)c([C@@]2(C)N=C(N)C(C)(C)[S@@]3(=O)=NCC[C@@H]23)c1 [Example 1AB, N-(3-((3aS,4R,8R)-6-amino-4,7,7-trimethyl-8-oxido-3,3a,4,7-tetrahydro-2H-isothiazolo[1,5-a][1,4]thiazin-4-yl)-4-fluorophenyl)-5-cyano-3-methylpicolinamide]
response vs control in vivo at 30 mg/kg (Aβ40): 14%
IC50 (BACE1): 0.09 nM

Cc1cc(C#N)cnc1C(=O)Nc1ccc(F)c([C@@]2(C)N=C(N)C(C)(C)[S@]3(=O)=NCC[C@H]23)c1 [Example 1BA, N-(3-((3aR,4R,8S)-6-amino-4,7,7-trimethyl-8-oxido-3,3a,4,7-tetrahydro-2H-isothiazolo[1,5-a][1,4]thiazin-4-yl)-4-fluorophenyl)-5-cyano-3-methylpicolinamide]
response vs control in vivo at 30 mg/kg (Aβ40): 73%
IC50 (BACE1): 3.6 nM

CC1(C)C(N)=N[C@](C)(c2cc(NC(=O)c3ncc(C#N)cc3Cl)ccc2F)[C@@H]2CCN=[S@@]21=O [Example 2AB, N-(3-((3aS,4R,8R)-6-amino-4,7,7-trimethyl-8-oxido-3,3a,4,7-tetrahydro-2H-isothiazolo[1,5-a][1,4]thiazin-4-yl)-4-fluorophenyl)-3-chloro-5-cyanopicolinamide]
response vs control in vivo at 30 mg/kg (Aβ40): 80%
IC50 (BACE1): 1 nM

CC1(C)C(N)=N[C@](C)(c2cc(NC(=O)c3ccc(OC(F)F)cn3)ccc2F)[C@@H]2CCN=[S@@]21=O [Example 5AB, N-(3-((3aS,4R,8R)-6-amino-4,7,7-trimethyl-8-oxido-3,3a,4,7-tetrahydro-2H-isothiazolo[1,5-a][1,4]thiazin-4-yl)-4-fluorophenyl)-5-(difluoromethoxy)picolinamide]
IC50 (BACE1): 0.6 nM

CC1(C)C(N)=N[C@](C)(c2cc(NC(=O)c3nn(C(F)F)cc3Cl)ccc2F)[C@@H]2CCN=[S@@]21=O [Example 6AB, N-(3-((3aS,4R,8R)-6-amino-4,7,7-trimethyl-8-oxido-3,3a,4,7-tetrahydro-2H-isothiazolo[1,5-a][1,4]thiazin-4-yl)-4-fluorophenyl)-4-chloro-1-(difluoromethyl)-1H-pyrazole-3-carboxamide]
IC50 (BACE1): 1.1 nM

CC1(C)C(N)=N[C@](C)(c2cc(NC(=O)c3ncc(C(F)(F)F)cc3Cl)ccc2F)[C@@H]2CCN=[S@@]21=O [Example 8AB, N-(3-((3aS,4R,8R)-6-amino-4,7,7-trimethyl-8-oxido-3,3a,4,7-tetrahydro-2H-isothiazolo[1,5-a][1,4]thiazin-4-yl)-4-fluorophenyl)-3-chloro-5-(trifluoromethyl)picolinamide]
IC50 (BACE1): 0.3 nM

Cc1cc(C#N)ccc1C(=O)Nc1ccc(F)c([C@@]2(C)N=C(N)C(C)(C)[S@@]3(=O)=NCC[C@@H]23)c1 [Example 9AB, N-(3-((3aS,4R,8R)-6-amino-4,7,7-trimethyl-8-oxido-3,3a,4,7-tetrahydro-2H-isothiazolo[1,5-a][1,4]thiazin-4-yl)-4-fluorophenyl)-4-cyano-2-methylbenzamide]
IC50 (BACE1): 12.3 nM

CC1(C)C(N)=N[C@](C)(c2cc(NC(=O)c3ccc(OCC(F)F)cn3)ccc2F)[C@@H]2CCN=[S@@]21=O [Example 10AB, N-(3-((3aS,4R,8R)-6-amino-4,7,7-trimethyl-8-oxido-3,3a,4,7-tetrahydro-2H-isothiazolo[1,5-a][1,4]thiazin-4-yl)-4-fluorophenyl)-5-(2,2-difluoroethoxy)picolinamide]
IC50 (BACE1): 2.2 nM

Cc1cc(OC(F)F)cnc1C(=O)Nc1ccc(F)c([C@@]2(C)N=C(N)C(C)(C)[S@@]3(=O)=NCC[C@@H]23)c1 [Example 11AB, N-(3-((3aS,4R,8R)-6-amino-4,7,7-trimethyl-8-oxido-3,3a,4,7-tetrahydro-2H-isothiazolo[1,5-a][1,4]thiazin-4-yl)-4-fluorophenyl)-5-(difluoromethoxy)-3-methylpicolinamide]
IC50 (BACE1): 0.2 nM

CC1(C)C(N)=N[C@](C)(c2cc(NC(=O)c3ccc(OCC(F)(F)C(F)F)cn3)ccc2F)[C@@H]2CCN=[S@@]21=O [Example 12AB, N-(3-((3aS,4R,8R)-6-amino-4,7,7-trimethyl-8-oxido-3,3a,4,7-tetrahydro-2H-isothiazolo[1,5-a][1,4]thiazin-4-yl)-4-fluorophenyl)-5-(2,2,3,3-tetrafluoropropoxy)picolinamide]
IC50 (BACE1): 1.4 nM

CC1(C)C(N)=N[C@](C)(c2cc(NC(=O)c3ccc(C#N)cn3)ccc2F)[C@@H]2CCN=[S@@]21=O [Example 16AB, N-(3-((3aS,4R,8R)-6-amino-4,7,7-trimethyl-8-oxido-3,3a,4,7-tetrahydro-2H-isothiazolo[1,5-a][1,4]thiazin-4-yl)-4-fluorophenyl)-5-cyanopicolinamide]
IC50 (BACE1): 0.2 nM

CC1(C)C(N)=N[C@](C)(c2cc(NC(=O)c3ccc(Cl)cn3)ccc2F)[C@@H]2CCN=[S@@]21=O [Example 18AB, N-(3-((3aS,4R,8R)-6-amino-4,7,7-trimethyl-8-oxido-3,3a,4,7-tetrahydro-2H-isothiazolo[1,5-a][1,4]thiazin-4-yl)-4-fluorophenyl)-5-chloropicolinamide]
IC50 (BACE1): 0.2 nM

CC1(C)C(N)=N[C@](C)(c2cc(NC(=O)c3ncc(F)cc3F)ccc2F)[C@@H]2CCN=[S@@]21=O [Example 19AB, N-(3-((3aS,4R,8R)-6-amino-4,7,7-trimethyl-8-oxido-3,3a,4,7-tetrahydro-2H-isothiazolo[1,5-a][1,4]thiazin-4-yl)-4-fluorophenyl)-3,5-difluoropicolinamide]
IC50 (BACE1): 1.3 nM

Cc1ccc(C(=O)Nc2ccc(F)c([C@@]3(C)N=C(N)C(C)(C)[S@@]4(=O)=NCC[C@@H]34)c2)nc1 [Example 20AB, N-(3-((3aS,4R,8R)-6-amino-4,7,7-trimethyl-8-oxido-3,3a,4,7-tetrahydro-2H-isothiazolo[1,5-a][1,4]thiazin-4-yl)-4-fluorophenyl)-5-methylpicolinamide]
IC50 (BACE1): 0.4 nM

Cc1ncc(C(=O)Nc2ccc(F)c([C@@]3(C)N=C(N)C(C)(C)[S@@]4(=O)=NCC[C@@H]34)c2)cn1 [Example 21AB, N-(3-((3aS,4R,8R)-6-amino-4,7,7-trimethyl-8-oxido-3,3a,4,7-tetrahydro-2H-isothiazolo[1,5-a][1,4]thiazin-4-yl)-4-fluorophenyl)-2-methylpyrimidine-5-carboxamide]
IC50 (BACE1): 914 nM

Cc1cnc(C(=O)Nc2ccc(F)c([C@@]3(C)N=C(N)C(C)(C)[S@@]4(=O)=NCC[C@@H]34)c2)c(C)c1 [Example 23AB, N-(3-((3aS,4R,8R)-6-amino-4,7,7-trimethyl-8-oxido-3,3a,4,7-tetrahydro-2H-isothiazolo[1,5-a][1,4]thiazin-4-yl)-4-fluorophenyl)-3,5-dimethylpicolinamide]
IC50 (BACE1): 0.2 nM

COc1ccc(C(=O)Nc2ccc(F)c([C@@]3(C)N=C(N)C(C)(C)[S@@]4(=O)=NCC[C@@H]34)c2)nc1 [Example 24AB, N-(3-((3aS,4R,8R)-6-amino-4,7,7-trimethyl-8-oxido-3,3a,4,7-tetrahydro-2H-isothiazolo[1,5-a][1,4]thiazin-4-yl)-4-fluorophenyl)-5-methoxypicolinamide]
IC50 (BACE1): 0.7 nM

Source: patent publication US10696691B2, “BACE1 inhibitors” (Hoffmann-La Roche Inc., priority 2015, dated 2020)
